Assay [1] has as its target T1, Methylated-DNA--protein-cysteine methyltransferase (Homo sapiens) (UniProt P16455).
T1 sequence (whole entry): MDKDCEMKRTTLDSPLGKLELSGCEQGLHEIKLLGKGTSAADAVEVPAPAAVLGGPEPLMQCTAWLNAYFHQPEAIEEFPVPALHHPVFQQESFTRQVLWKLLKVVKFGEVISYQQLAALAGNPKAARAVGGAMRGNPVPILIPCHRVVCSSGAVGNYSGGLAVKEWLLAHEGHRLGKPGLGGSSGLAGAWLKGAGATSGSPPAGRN
The settings on record: HT-29.
Description: AGT-inactivating activity was determined by 50% inactivation in HT-29 cells upon incubation for 4 h

In assay [2] the target is T1, Methylated-DNA--protein-cysteine methyltransferase (Homo sapiens). To be noted: HT-29. This is another data set of the same source.
Description: AGT-inactivating activity was determined by 50% inactivation in HT-29 cell free extract upon incubation for 30 min

Molecules are shown by their SMILES.

`Nc1nc(N)c(Br)c(OCc2ccccc2)n1`: the values for the ED50 in assay [1] and in assay [2] were 800 nM and 2000 nM, respectively.

For `Cc1nc(N)nc(OCc2ccccc2)c1[N+](=O)[O-]`, the ED50 was determined as 60 nM in assay [1] and 400 nM in assay [2].

As for `Nc1nc(OCc2ccccc2)c2[nH]nnc2n1`, the values for the ED50 in assay [1] and in assay [2] were 60 nM and 70 nM, respectively.

As to `Cc1nc2[nH]c(N)nc(OCc3ccccc3)c-2n1`, the figures for the ED50 in assay [1] and in assay [2] were 100 nM and 300 nM, respectively.

Take `Fc1nc(OCc2ccccc2)c2[nH]cnc2n1`: the values for the ED50 in assay [1] and in assay [2] were 12000 nM and 48000 nM, respectively.

In the case of `CC(=O)Nc1nc(OCc2ccccc2)c2[nH]c(O)nc2n1`, the ED50 was 11000 nM in assay [1] and 65000 nM in assay [2].

Consider `CNc1nc(OCc2ccccc2)c2[nH]cnc2n1`, for which the values for the ED50 in assay [1] and in assay [2] were 60000 nM and 160000 nM, respectively.

Turning to `Nc1nc(OCc2ccccc2)c2[nH]c(C(F)(F)F)nc2n1`, the values for the ED50 in assay [1] and in assay [2] were 250 nM and 400 nM, respectively.

Turning to `Oc1nc(OCc2ccccc2)c2[nH]cnc2n1`, the ED50 was determined as 35000 nM in assay [1] and 60000 nM in assay [2].

`Nc1nc(N)nc(OCc2ccccc2)n1`: the results for the ED50 in assay [1] and in assay [2] were 1000 nM and 4000 nM, respectively.

As to `CN(C)c1nc(OCc2ccccc2)c2[nH]cnc2n1`, the ED50 came to 110000 nM in assay [1] and 200000 nM in assay [2].

`Nc1ncnc(OCc2ccccc2)c1[N+](=O)[O-]`: the results for the ED50 in assay [1] and in assay [2] were 8000 nM and 28000 nM, respectively.

Turning to `Nc1ncc([N+](=O)[O-])c(OCc2ccccc2)n1`, the figures for the ED50 in assay [1] and in assay [2] were 50 nM and 400 nM, respectively.

As to `Nc1nc(N)c(N)c(OCc2ccccc2)n1`, the ED50 in assay [1] stood at 300 nM; in assay [2] it was 400 nM.

Consider `Nc1nc(N)c(N=O)c(OCc2ccccc2)n1`, for which the ED50 in assay [1] stood at 20 nM; in assay [2] it was 60 nM.

As for `Nc1nc(OCc2ccccc2)c2[nH]c(O)nc2n1`, the ED50 was 150 nM in assay [1] and 300 nM in assay [2].

As for `Nc1cc(OCc2ccccc2)nc(N)n1`, the figures for the ED50 in assay [1] and in assay [2] were 5000 nM and 15000 nM, respectively.

As to `Nc1nc(OCc2ccccc2)c2[nH]c(N)nc2n1`, the ED50 in assay [1] worked out at 2000 nM; in assay [2] it was 700 nM.

For the compound `Nc1nc(OCc2ccccc2)c2[nH]c(Br)nc2n1`, the values for the ED50 in assay [1] and in assay [2] were 60 nM and 80 nM, respectively.

Take `Oc1nc(OCc2ccccc2)c2[nH]c(O)nc2n1`: the ED50 in assay [1] is 45000 nM; in assay [2], 25000 nM.

Values taken from ChEMBL document CHEMBL1128442, “8-Substituted O6-benzylguanine, substituted 6(4)-(benzyloxy)pyrimidine, and related derivatives as inactivators of human O6-alkylguanine-DNA alkyltransferase” (J Med Chem, 1995).
